Series [1] can be described thus: Chiral stability: solid stored at 40° C. and 75% RH, enantiomeric excess by chiral HPLC. As to conditions: for Enantiomeric excess: storage condition (B): solid, 40° C. and 75% RH, 4 weeks; for chemical / chiral stability (in words): elevated temperature and humidity, storage 40° C. and 75% RH, sodium salt dihydrate.
Protocol: Enantiomeric excess was determined by chiral HPLC on a HPLC system containing a Quaternary HPLC pump (e.g. HP 1100), an auto sampler, an UV absorbance detector (e.g. DAD Agilent Technologies or other adequate HPLC-System) and a computer data acquisition system with suitable software (e.g. Dionex-Chromeleon). A Chirobiotic R, Supelco (Astec) (4.6×250 mm; 5 μm) column was used as stationary phase and a solution of 800 mL water, 1200 mL acetonitrile and 1.0 g ammoniumacetate was used as mobile phase. The flow rate was set to a value of 1.5 mL/minute and the oven temperature was set to 45° C. Detection was performed by absorbance of the compounds at 236 nm (UV) (bandwidth: 8 nm) and reference wavelength was set to 450 nm (bandwidth: 50 nm). Typical total run times were in the range of about 15 minutes. For sample preparation 50 mg of the substance were accurately weighed into a 10 mL volumetric flask and dissolved and diluted to volume with solvent (acetonitrile/water 50:50). For the HPLC analysis 5 μL of the sample were injected into the system.
Gradient used: Isograt (15 minutes 100% mobile phase A)
Series [2] in a line: Dynamic Vapor Sorption (DVS), moisture sorption/desorption isotherms at 25° C. The series is classed as physicochemical. The method, then:
Moisture sorption/desorption isotherms were recorded on a SPS11-10μ from Projekt Messtechnik (Ulm, Germany). One cycle was run at 25° C., in which the sample was first stepwise decreased to 0% Room humidity (RH) and then the relative humidity was stepwise increased from 0 to 95% and the weight of the sample was measured. Typical total measurement times for both cycles were about 20 to 30 hours.

The source of these data is patent US9102657B2, “Sodium salt of (R)-3-[6-amino-pyridin-3-yl]-2-(1-cyclohexyl-1H-imidazol-4-yl)-propionic acid” (Sanofi, priority 2011, dated 2015).

As for `Nc1ccc(C[C@@H](C(=O)O)c2cn(C3CCCCC3)cn2)cn1` [Example 1, (R)-3-[6-amino-pyridin-3-yl]-2-(1-cyclohexyl-1H-imidazol-4-yl)-propionic acid], the Enantiomeric excess in series [1] and in series [1] (listed as (R)-3-[6-amino-pyridin-3-yl]-2-(1-cyclohexyl-1H-imidazol-4-yl)-propionic acid) was 91.6% each time.
As for `Nc1ccc(C[C@@H](C(=O)[O-])c2cn(C3CCCCC3)cn2)cn1.[Na+]` [Example 3, (R)-3-[6-amino-pyridin-3-yl]-2-(1-cyclohexyl-1H-imidazol-4-yl)-propionic acid sodium salt dihydrate], the “chemical / chiral stability (in words)” value in series [1] (listed as sodium salt of (R)-3-[6-amino-pyridin-3-yl]-2-(1-cyclohexyl-1H-imidazol-4-yl)-pr) was “chemically stable”; in series [1], “remain stable”. The “hygroscopicity, absorption or adsorption of water from the surrounding environment (in words)” value in series [2] is recorded as “favorable reduced absorption or adsorption of water molecules”. Moreover, the “sorption and desorption isotherms (in words)” value in series [2] (DVS 25° C., between 30% relative humidity and 0.4% relative humidity) is reported as “almost the same (low water uptake or water desorption)”.
With `Nc1ccc(CC(C(=O)O)c2cn(C3CCCCC3)cn2)cn1` (stereo not shown) [3-[6-amino-pyridin-3-yl]-2-(1-cyclohexyl-1H-imidazol-4-yl)-propionic acid], the “hygroscopicity, absorption or adsorption of water from the surrounding environment (in words)” value in series [2] is on record as “hygroscopic”.
